Assay results reported in patent EP4711369A1, “1H-[1,2,3]TRIAZOLO[4,5-H]QUINAZOLINE COMPOUNDS AS PROTEIN KINASE INHIBITORS” (Chengdu Cynogen Bio-Pharmaceutical Technology Co., Ltd., priority 2023, dated 2024).

Tests used:
CDK2/cyclin E = CDK2/cyclin E (Homo sapiens, UniProt P24941); experiment: Assay of kinase activity (ADP-Glo); assay type: biochemical; conditions: kinase inhibitory activity, read-out: CDK2/E1 IC50
In short: (§1)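 Kinase preincubated 10 min with compound in 50 mM Hepes, 10 mM MgCl2, 0.01% Brij35, 2 mM DTT, then substrate/ATP added for 60 min at 25 °C. ADP formed measured by ADP-Glo luminescence; IC50 by nonlinear concentration-response fitting.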

CDK4/cyclin D1 = CDK4/cyclin D1 (Homo sapiens, UniProt P11802); experiment: Assay of kinase activity (ADP-Glo); assay type: biochemical; conditions: kinase inhibitory activity
In short: as §1

CDK6/cyclin D3 = CDK6/cyclin D3 (Homo sapiens, UniProt Q00534); experiment: Assay of kinase activity (ADP-Glo); assay type: biochemical; conditions: kinase inhibitory activity
In short: (§2)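 Human CDK6/cyclin D3 and CDK9/cyclin T1 preincubated 10 min at 25 °C with compound in 50 mM Hepes, 10 mM MgCl2, 0.01% Brij35, 2 mM DTT, then reacted 60 min at 25 °C with substrate and ATP. ADP formed measured by ADP-Glo luminescence; IC50 from nonlinear concentration-response fitting.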

CDK9/cyclin T1 = CDK9/cyclin T1 (Homo sapiens, UniProt P50750); experiment: Assay of kinase activity (ADP-Glo); assay type: biochemical; conditions: kinase inhibitory activity
In short: as §2

[1] = tested on: human acute myeloid leukemia MV-4-11 cells; experiment: Assay of cell proliferation (CellTiter-Glo); assay type: cell-based; conditions: MV4-11, 144 h, 6 days, read-out: MV-4-11 IC50 of cell proliferation inhibitory activity
In short: (§3)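 Cells seeded per line at growth-adapted densities, treated 6 days at 37 °C/5% CO2 with nine 3-fold dilutions (10 µM to 0.1 nM final, 0.5% DMSO). Viability by CellTiter-Glo luminescence; IC50 from four-parameter fit.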

[2] = tested on: human breast cancer HCC1806 cells; experiment: Assay of cell proliferation (CellTiter-Glo); assay type: cell-based; conditions: Homo sapiens, 144 h, 6 days, read-out: HCC1806 IC50 of cell proliferation inhibitory activity
In short: as §3

[3] = tested on: human breast cancer MCF-7 cells; experiment: Assay of cell proliferation (CellTiter-Glo); assay type: cell-based; conditions: 144 h, MCF7 cells, 6 days, read-out: MCF7 IC50 of cell proliferation inhibitory activity
In short: as §3

[4] = tested on: human colon cancer HCT-116 cells; experiment: Assay of cell proliferation (CellTiter-Glo); assay type: cell-based; conditions: 144 h, 6 days, read-out: HCT-116 IC50 of cell proliferation inhibitory activity
In short: as §3

[5] = tested on: human gastric cancer MKN1 cells; experiment: Assay of cell proliferation (CellTiter-Glo); assay type: cell-based; conditions: Homo sapiens, MKN-1, 144 h; MNK1, 6 days; read-out: MKN1 IC50 of cell proliferation inhibitory activity
In short: as §3

[6] = tested on: Human ovarian cancer OVCAR3 cells; experiment: Assay of cell proliferation (CellTiter-Glo); assay type: cell-based; conditions: Homo sapiens, OVCAR-3, 144 h, 6 days, read-out: OVCAR3 IC50 of cell proliferation inhibitory activity
In short: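 OVCAR3 cells, 2000/well in RPMI 1640 with 20% FBS, treated with nine 3-fold dilutions from 10 µM to 0.1 nM (0.5% DMSO) for 6 days at 37 °C. Viability by CellTiter-Glo luminescence; IC50 by four-parameter fit.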

CDK4/cyclin D1, sequence (P11802 whole entry, species assumed): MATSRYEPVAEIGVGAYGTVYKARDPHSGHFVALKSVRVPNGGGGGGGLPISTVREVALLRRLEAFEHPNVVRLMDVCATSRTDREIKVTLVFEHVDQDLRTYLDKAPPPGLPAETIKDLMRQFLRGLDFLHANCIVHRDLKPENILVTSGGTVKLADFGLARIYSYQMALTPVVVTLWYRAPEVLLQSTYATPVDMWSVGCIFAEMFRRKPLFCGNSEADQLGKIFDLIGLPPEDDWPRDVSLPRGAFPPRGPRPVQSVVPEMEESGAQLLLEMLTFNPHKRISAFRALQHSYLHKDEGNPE
CDK4/cyclin D1, sequence (P24385 whole entry partner, species assumed): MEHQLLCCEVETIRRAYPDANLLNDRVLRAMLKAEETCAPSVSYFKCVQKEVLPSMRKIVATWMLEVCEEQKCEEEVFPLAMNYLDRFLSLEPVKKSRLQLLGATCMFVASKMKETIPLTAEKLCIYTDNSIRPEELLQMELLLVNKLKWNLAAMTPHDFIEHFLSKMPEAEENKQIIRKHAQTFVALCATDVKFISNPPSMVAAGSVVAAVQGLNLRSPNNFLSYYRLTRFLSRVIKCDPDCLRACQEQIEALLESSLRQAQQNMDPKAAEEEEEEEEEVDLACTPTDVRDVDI
CDK9/cyclin T1, sequence (P50750 whole entry, species assumed): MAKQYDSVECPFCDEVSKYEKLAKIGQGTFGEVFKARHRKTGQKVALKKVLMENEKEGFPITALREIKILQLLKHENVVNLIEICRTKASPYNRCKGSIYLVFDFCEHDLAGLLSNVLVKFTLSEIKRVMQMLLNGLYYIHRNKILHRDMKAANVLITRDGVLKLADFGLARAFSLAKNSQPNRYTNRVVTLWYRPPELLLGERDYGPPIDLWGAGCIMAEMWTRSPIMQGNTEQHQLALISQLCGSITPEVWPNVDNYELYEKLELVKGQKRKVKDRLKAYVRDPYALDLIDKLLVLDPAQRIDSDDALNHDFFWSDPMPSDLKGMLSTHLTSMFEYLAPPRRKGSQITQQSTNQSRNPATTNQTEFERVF
CDK9/cyclin T1, sequence (O60563 whole entry partner, species assumed): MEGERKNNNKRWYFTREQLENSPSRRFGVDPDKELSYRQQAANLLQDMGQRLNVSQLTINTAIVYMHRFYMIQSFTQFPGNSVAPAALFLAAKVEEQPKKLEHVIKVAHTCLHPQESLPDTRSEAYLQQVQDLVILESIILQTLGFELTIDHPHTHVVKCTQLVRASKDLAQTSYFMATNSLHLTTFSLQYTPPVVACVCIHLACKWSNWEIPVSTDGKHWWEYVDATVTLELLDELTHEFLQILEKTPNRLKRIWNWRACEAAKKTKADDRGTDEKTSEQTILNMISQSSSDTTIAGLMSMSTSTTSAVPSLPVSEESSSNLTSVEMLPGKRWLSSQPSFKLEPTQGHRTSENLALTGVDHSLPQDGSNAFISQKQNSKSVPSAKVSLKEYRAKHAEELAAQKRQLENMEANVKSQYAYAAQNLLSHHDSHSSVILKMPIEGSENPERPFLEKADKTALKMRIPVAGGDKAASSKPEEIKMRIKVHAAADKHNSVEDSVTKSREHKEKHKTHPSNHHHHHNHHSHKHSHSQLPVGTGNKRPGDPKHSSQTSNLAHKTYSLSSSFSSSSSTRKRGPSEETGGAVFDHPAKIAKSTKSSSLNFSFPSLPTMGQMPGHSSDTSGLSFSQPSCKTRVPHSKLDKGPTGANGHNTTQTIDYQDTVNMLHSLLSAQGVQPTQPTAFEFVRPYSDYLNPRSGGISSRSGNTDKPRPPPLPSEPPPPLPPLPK
CDK6/cyclin D3, sequence (Q00534 whole entry, species assumed): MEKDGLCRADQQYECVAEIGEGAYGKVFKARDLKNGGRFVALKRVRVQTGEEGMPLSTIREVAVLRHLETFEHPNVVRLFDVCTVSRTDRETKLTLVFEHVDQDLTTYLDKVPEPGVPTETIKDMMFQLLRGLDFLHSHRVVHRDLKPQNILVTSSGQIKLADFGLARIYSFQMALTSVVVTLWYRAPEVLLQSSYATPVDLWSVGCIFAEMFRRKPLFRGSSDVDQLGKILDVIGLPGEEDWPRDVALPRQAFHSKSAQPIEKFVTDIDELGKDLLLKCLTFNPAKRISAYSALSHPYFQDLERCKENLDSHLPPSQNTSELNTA
CDK6/cyclin D3, sequence (P30281 whole entry partner, species assumed): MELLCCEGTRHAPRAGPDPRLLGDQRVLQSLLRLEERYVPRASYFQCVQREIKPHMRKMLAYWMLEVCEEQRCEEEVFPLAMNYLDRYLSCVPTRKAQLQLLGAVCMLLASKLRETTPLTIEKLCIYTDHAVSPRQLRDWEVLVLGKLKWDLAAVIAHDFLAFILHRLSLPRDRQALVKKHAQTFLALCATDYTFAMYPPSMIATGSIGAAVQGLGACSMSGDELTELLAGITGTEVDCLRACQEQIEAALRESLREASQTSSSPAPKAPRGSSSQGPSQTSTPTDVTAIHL

Row | IC50 (CDK2/cyclin E) [nM] | IC50 (CDK4/cyclin D1) [nM] | IC50 (CDK6/cyclin D3) [nM] | IC50 (CDK9/cyclin T1) [nM] | IC50 [1] [nM] | IC50 [2] [nM] | IC50 [3] [nM] | IC50 [4] [nM] | IC50 [5] [nM] | IC50 [6] [nM] | Structure (SMILES)
1 | 1 | 2 | 12 | 8 | 10 | 379 | 42 | 21 | 85 | 49 | CC(C)n1nnc2ccc3cnc(Nc4ccc(C(=O)N5CCNCC5)c(F)c4)nc3c21 [Example I-19, (2-Fluoro-4-((1-isopropyl-1H-[1,2,3]triazolo[4,5-H]quinazolin-8-yl)amino)phenyl)(piperazin-1-yl)methanone]
2 | 0.8 | 3 | 11 | 10 | 20 | 832 | 239 | 136 | 58 | 372 | CC(C)n1nnc2ccc3cnc(Nc4ccc(C(=O)N5CCC(F)(F)CC5)cc4)nc3c21 [Example I-37, (4,4-Difluoropiperidin-1-yl)(4-((1-isopropyl-1H-[1,2,3]triazolo[4,5-H]quinazolin-8-yl)amino)phenyl)metha none]
3 | 0.8 | 4 | 16 | 11 | 15 | 403 | 167 | 80 | 28 | 140 | CC(C)n1nnc2ccc3cnc(Nc4ccc(C(=O)N5CCC(O)CC5)cc4)nc3c21 [Example I-36, (4-Hydroxypiperidin-1-yl)(4-((1-isopropyl-1H-[1,2,3]triazolo[4,5-H]quinazolin-8-yl)amino)phenyl)metha none]
4 | 0.08 | 0.5 | 8 | 5 | 3 | 24 | 18 | 25 | 8 | 12 | CC(C)n1nnc2ccc3cnc(Nc4ccc(C(=O)N5CC[C@H](N)C5)cc4)nc3c21 [Example I-4, (S)-(3-Aminopyrrolidin-1-yl)(4-((1-isopropyl-1H-[1,2,3]triazolo[4,5-H]quinazolin-8-yl)amino)phenyl)methanone]
5 | 0.4 | 1 | 4 | 6 |  | 302 |  | 94 | 196 | 203 | CC(C)n1nnc2ccc3cnc(Nc4ccc(C(=O)N5CCC(O)C5)cc4)nc3c21 (stereo not shown) [Example I-3, (3-Hydroxypyrrolidin-1-yl)(4-((1-isopropyl-1H-[1,2,3]triazolo[4,5-H]quinazolin-8-yl)amino)phenyl)methanone]
6 | 0.09 | 0.7 | 19 | 2 | 2 | 6 |  |  | 5 | 7 | CC(C)n1nnc2ccc3cnc(Nc4ccc(C(=O)N5CCCN(C)CC5)cc4)nc3c21 [Example I-34, (4-((1-Isopropyl-1H-[1,2,3]triazolo[4,5-H]quinazolin-8-yl)amino)phenyl)(4-methyl-1,4-diazepan-1-yl)methanone]
7 | 0.1 | 0.8 | 19 | 3 | 2 | 16 |  |  | 4 | 7 | CC(C)N[C@H]1CCN(C(=O)c2ccc(Nc3ncc4ccc5nnn(C(C)C)c5c4n3)cc2)C1 [Example I-8, (S)-(4-((1-Isopropyl-1H-[1,2,3]triazolo[4,5-H]quinazolin-8-yl)amino)phenyl)(3-(isopropylamino)pyrrolidin-1-yl)methanone]
8 | 3 | 15 | 230 | 315 | 9 | 167 |  |  | 44 | 80 | CC(C)n1nnc2ccc3cnc(Nc4ccc(C(=O)N5CCS(=O)(=O)CC5)cc4)nc3c21 [Example I-32, (1,1-Dioxothiomorpholino)(4-((1-isopropyl-1H-[1,2,3]triazolo[4,5-H]quinazolin-8-yl)amino)phenyl)metha none]
9 | 0.2 | 1 | 26 | 45 | 2 | 19 |  |  | 3 | 5 | CC(C)n1nnc2ccc3cnc(Nc4ccc(C(=O)N5CCCNCC5)cc4)nc3c21 [Example I-33, (1,4-Diazepan-1-yl)(4-((1-isopropyl-1H-[1,2,3]triazolo[4,5-H]quinazolin-8-yl)amino)phenyl)metha none]
10 | 1 | 2 | 15 | 46 | 18 | 543 |  |  | 127 | 389 | C[C@@H](n1nnc2ccc3cnc(Nc4ccc(C(=O)N5CCS(=O)(=O)CC5)cc4)nc3c21)C(C)(C)O [Example I-59, (R)-(1,1-Dioxothiomorpholino)(4-((1-(3-hydroxy-3-methylbutan-2-yl)-1H-[1,2,3]triazolo[4,5-H]quinazolin-8-yl)amino)phenyl)methanone]
11 | 0.5 | 1 | 14 | 2 | 4 | 112 |  |  | 31 | 35 | CC(C)n1nnc2ccc3cnc(Nc4ccc(C(=O)N5CCN[C@H](C)C5)cc4)nc3c21 [Example I-21, (R)-(4-((1-Isopropyl-1H-[1,2,3]triazolo[4,5-H]quinazolin-8-yl)amino)phenyl)(3-methylpiperazin-1-yl)methanone]
12 | 0.6 | 0.6 | 3 | 3 | 5 | 111 |  |  | 8 | 35 | C[C@@]1(O)CCC[C@H]1n1nnc2ccc3cnc(Nc4ccc(C(=O)N5CCNCC5)cc4)nc3c21 [Example I-65]
13 | 1 | 2 | 34 | 112 | 8 | 121 |  |  | 62 | 181 | C[C@@]1(O)CCC[C@H]1n1nnc2ccc3cnc(Nc4ccc(C(=O)N5CCS(=O)(=O)CC5)cc4)nc3c21 [Example I-68, (1,1-Dioxothiomorpholino)(4-((1-((1R,2R)-2-hydroxy-2-methylcyclopentyl)-1H-[1,2,3]triazolo[4,5-H]quinazolin-8-yl)amino)phenyl)methanone]
14 | 0.7 | 2 | 18 | 6 | 5 | 80 |  |  | 15 | 31 | CC(C)N[C@H]1CCN(C(=O)c2ccc(Nc3ncc4ccc5nnn([C@H](C)C(C)(C)O)c5c4n3)cc2)C1 [Example I-55, (4-((1-((R)-3-hydroxy-3-methylbutan-2-yl)-1H-[1,2,3]triazolo[4,5-H]quinazolin-8-yl)amino)phenyl)((S)-3-(isopropylamino)pyrrolidin-1-yl)methanone]

Row | Structure (SMILES) | IC50 (CDK2/cyclin E) [nM] | IC50 (CDK4/cyclin D1) [nM] | IC50 (CDK6/cyclin D3) [nM] | IC50 (CDK9/cyclin T1) [nM] | IC50 [1] [nM] | IC50 [2] [nM] | IC50 [3] [nM] | IC50 [4] [nM] | IC50 [5] [nM] | IC50 [6] [nM]
15 | CC1(O)CCCC1n1c(=O)c(C(F)F)cc2cnc(NC3CCN(S(C)(=O)=O)CC3)nc21 (stereo not shown) [PF06873600 (Ebvaciclib), reference compound] |  |  |  | 452 | 100 | 481 | 24 | 69 | 77 | 118
